Data taken from patent US20230053540A1, “TREATMENT OF LIVER INJURY” (Massachusetts Institute of Technology, priority 2019, published 2023).

System: hepatocytes
Assay: Gene set analysis (piano) of composite DEG, APAP vs untreated
Design: species or system mouse
Description: Shared and unique by injury model gene lists were assembled by combining DE results across all time points for each injury. Applicants ran differential expression using Wilcox test in the FindAllMarkers Seurat function between each treatment condition (A6, A24, A48, A96, PH3, PH48, PH120) individually and untreated (UT). […] A small number of genes were up at one time point, but down at another.
Applicants ran pathway analysis on the composite DE results using the piano R package. Reference gene sets were downloaded from MSigDB (Broad Institute). Applicants used geneSetStat=“fisher”, adjMethod=“fdr”, and signifMethod=“geneSampling”. Applicants then parsed the results to identify shared and unique reference gene sets for each injury. Any reference gene set with a q-value greater than 0.05 was discarded as insignificant. […] Selected reference gene set −log(q) are plotted in FIG. 20.

## CC(=O)Nc1ccc(O)cc1 [APAP, acetaminophen]
  anti-oxidant response by gene set analysis (GSA): substantial anti-oxidant response
